Reference: the supplement of paper PMC10307832

Columns and labels:
Assay in all cases: relative viability (nuclei count vs DMSO), 5 days (fraction); higher = more cells survive
[1] = compound: Cc1ccc(C(=O)N(CCCN)[C@@H](c2nc3cc(Cl)ccc3c(=O)n2Cc2ccccc2)C(C)C)cc1 [Ispinesib] + CS(=O)(=O)N1CCN(Cc2cc3nc(-c4cccc5[nH]ncc45)nc(N4CCOCC4)c3s2)CC1 [Pictilisib] (partner 1 µM)
Summary of the method: (§1)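 For relative viability, nuclei counts in treated wells were divided by those in vehicle wells. Lung cancer cell lines had been pin-tool dosed in 1536-well plates the day after seeding and cultured for 5 days, then fixed and stained in one step (final 0.05% Triton X-100, 1% formaldehyde, 1 ug/ml Hoechst) and imaged at 4×. Doses were one drug alone or a fixed anchor-drug dose plus five library-drug doses (not always all listed) in √10 steps, and values are duplicate-plate medians.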

[2] = compound: C[C@]1(O)C[C@@H](c2nc(-c3ccc4ccc(-c5ccccc5)nc4c3)c3c(N)nccn32)C1 [Linsitinib] + CS(=O)(=O)CCNCc1ccc(-c2ccc3ncnc(Nc4ccc(OCc5cccc(F)c5)c(Cl)c4)c3c2)o1 [Lapatinib] (partner 2 µM)
Summary of the method: as §1

[3] = compound: C[C@]1(O)C[C@@H](c2nc(-c3ccc4ccc(-c5ccccc5)nc4c3)c3c(N)nccn32)C1 [Linsitinib] + O=C(c1cc(Cc2n[nH]c(=O)c3ccccc23)ccc1F)N1CCN(C(=O)C2CC2)CC1 [Olaparib] (partner 8 µM)
Summary of the method: as §1

[4] = compound: Cc1ccc(C(=O)N(CCCN)[C@@H](c2nc3cc(Cl)ccc3c(=O)n2Cc2ccccc2)C(C)C)cc1 [Ispinesib] + Cc1cc(Nc2cc(N3CCN(C)CC3)nc(Sc3ccc(NC(=O)C4CC4)cc3)n2)n[nH]1 [Tozasertib] (partner 0.1 µM)
Summary of the method: as §1

Row | Cell Line | relative viability ([1]; first compound 0.001 µM) | relative viability ([1]; first compound 0.003162 µM) | relative viability ([1]; first compound 0.01 µM) | relative viability ([1]; first compound 0.03162 µM) | relative viability ([1]; first compound 0.1 µM) | relative viability ([2]; first compound 0.01 µM) | relative viability ([2]; first compound 0.03162 µM) | relative viability ([2]; first compound 0.1 µM) | relative viability ([2]; first compound 0.3162 µM) | relative viability ([2]; first compound 1 µM) | relative viability ([3]; first compound 0.01 µM) | relative viability ([3]; first compound 0.03162 µM) | relative viability ([3]; first compound 0.1 µM) | relative viability ([3]; first compound 0.3162 µM) | relative viability ([3]; first compound 1 µM) | relative viability ([4]; first compound 0.001 µM) | relative viability ([4]; first compound 0.003162 µM) | relative viability ([4]; first compound 0.01 µM) | relative viability ([4]; first compound 0.03162 µM) | relative viability ([4]; first compound 0.1 µM)
1 | NCI-H2023 | 0.271 | 0.237 | 0.273 | 0.0793 | 0.125 | 0.821 | 0.411 | 0.895 | 0.0717 | 0.408 | 0.468 | 0.39 | 0.617 | 0.378 | 0.453 | 0.378 | 0.399 | 0.378 | 0.211 | 0.202
2 | Calu-6 | 1.09 | 0.727 | 0.186 | 0.113 | 0.155 | 0.98 | 0.949 | 1.18 | 0.985 | 0.947 | 0.537 | 0.46 | 0.542 | 0.501 | 0.458 |  |  |  |  | 
3 | NCI-H522 |  |  |  |  |  |  |  |  |  |  | 0.895 | 0.588 | 0.554 | 0.512 | 0.57 | 0.562 | 0.508 | 0.542 | 0.557 | 0.702
4 | HOP-62 | 0.568 | 0.784 | 0.785 | 0.306 | 0.148 | 1.06 | 1.15 | 1.01 |  | 0.631 |  | 0.247 | 0.524 | 0.244 | 0.393 | 0.373 | 0.47 | 0.389 | 0.449 | 0.406
5 | H3255 | 0.456 | 0.431 | 0.471 | 0.335 | 0.345 | 0.247 | 0.284 | 0.19 | 0.245 | 0.206 | 0.6 | 0.604 | 0.564 | 0.456 | 0.5 | 0.599 | 0.767 | 0.717 | 0.601 | 0.614
6 | NCI-H1734 | 0.414 | 0.476 | 0.506 | 0.34 | 0.233 | 1.05 | 1.15 | 1.05 | 0.714 | 0.778 | 0.592 | 0.625 | 0.593 | 0.57 | 0.535 | 0.258 | 0.121 | 0.25 | 0.254 | 0.218
7 | NCI-H1792 | 0.289 | 0.303 | 0.254 | 0.177 | 0.302 | 0.903 | 0.847 | 0.706 | 0.667 | 0.649 | 0.341 | 0.348 | 0.373 | 0.298 | 0.172 |  |  |  |  | 
8 | NCI-H1648 |  |  |  |  |  |  |  |  |  |  | 0.766 | 0.941 | 1.31 | 0.377 | 0.399 | 0.532 | 0.484 | 0.394 | 0.498 | 0.44
9 | LCLC-103H | 0.6 | 0.624 | 0.682 | 0.495 | 0.572 |  |  |  |  |  | 0.743 | 0.776 | 0.771 | 0.689 | 0.758 | 0.5 | 0.608 | 0.584 | 0.382 | 0.485
10 | IA-LM | 0.484 | 0.352 | 0.278 | 0.173 | 0.121 | 0.962 | 1.02 | 0.854 | 0.61 | 0.437 | 0.906 | 0.976 | 0.871 | 0.796 | 0.75 |  |  |  |  | 
11 | EBC-1 | 0.448 | 0.38 | 0.328 | 0.179 | 0.191 | 0.259 | 0.26 | 0.248 | 0.244 | 0.2 | 0.664 | 0.851 | 0.703 | 0.623 | 0.691 |  |  |  |  | 
12 | ChaGo-K-1 | 0.895 | 1.3 | 0.659 | 0.397 | 0.312 |  |  |  |  |  | 0.426 | 0.404 | 0.401 |  | 0.365 | 0.22 | 0.225 | 0.234 | 0.248 | 0.222
13 | A549 | 0.674 | 0.525 | 0.831 | 0.173 | 0.158 | 0.981 | 1.02 | 0.816 | 0.783 | 0.443 | 0.344 | 0.376 | 0.384 | 0.244 | 0.195 |  |  |  |  | 
14 | NCI-H1563 | 0.68 | 0.723 | 0.533 | 0.54 | 0.528 | 0.949 | 1.05 | 1.03 | 0.591 | 0.856 |  |  |  |  |  |  |  |  |  | 
15 | NCI-H1703 | 0.248 | 0.218 | 0.181 | 0.123 | 0.136 | 1.06 |  | 1.52 | 1.38 | 1.09 | 0.479 |  | 0.448 | 0.755 | 0.189 |  |  |  |  | 
16 | NCI-H1299 | 0.951 | 0.727 | 0.789 | 0.37 | 0.152 | 0.989 | 0.89 | 0.996 | 0.952 | 1.01 | 0.915 | 1.03 | 1 | 0.976 | 0.93 |  |  |  |  | 
17 | NCI-H441 | 0.441 | 0.505 | 0.468 | 0.145 | 0.209 |  |  |  |  |  | 0.515 | 0.667 | 0.487 | 0.399 | 0.435 | 0.681 | 0.603 | 0.673 | 0.258 | 0.341
18 | NCI-H2342 |  |  |  |  |  |  |  |  |  |  | 0.532 | 0.565 | 0.481 | 0.438 | 0.407 | 0.492 | 0.502 | 0.544 | 0.554 | 0.43
19 | SW 900 |  |  |  |  |  |  |  |  |  |  | 0.685 | 0.872 | 0.821 | 0.793 | 0.667 | 0.502 | 0.595 | 0.606 | 0.409 | 0.293
20 | NCI-H1623 |  |  |  |  |  |  |  |  |  |  |  |  |  |  |  | 0.404 | 0.719 | 0.473 | 0.394 | 0.324
